Data on five compounds can be found in article PMC8156206, “Novel N,N′-Disubstituted Selenoureas as Potential Antioxidant and Cytotoxic Agents” (Antioxidants, 2021).

Data set [1] has as its system HTB-54 cells (lung adenocarcinoma). Further details: method as in PMID 22397496. Particulars: reference drug, literature value; cited from earlier work.
The test system of data set [2] is MCF-7 cells (breast adenocarcinoma). To be noted: cited from earlier work.
Data set [3] has as its system HT-29 cells (colon carcinoma). Also noted: method as in PMID 32801055. Particulars: reference drug, literature value; cited from earlier work.
A further data set deals with HCT-116 cells (colon). The data set can be described thus: MTT cell viability assay, HCT-116. Format: cell-based. To be noted: 48 h, MTT, mean ± SD, read-out: IC50 HCT-116 (colon). On the procedure:
(§1) Cell lines were purchased from the American Type Culture Collection (ATCC). MCF-7, HTB-54, BEAS-2B and 184B5 cell lines were grown in RPMI 1640 medium (Gibco) supplemented with 10% fetal bovine serum (FBS; Gibco), 100 units/mL penicillin, and […] streptomycin (Gibco). HT-29 and HCT-116 cell lines was cultured in McCoy’s 5A (Gibco), 10% FBS, 100 units/mL penicillin, and 100 μg/mL streptomycin. Cells were maintained at 37 °C and 5% CO2. Culture medium was replaced every three days.
(§2) A cell viability assay of each compound was carried out using an MTT assay. Each selenourea was dissolved in dimethyl sulfoxide (DMSO) at a concentration of 0.01 M. Serial dilutions were prepared with non-supplemented culture medium. Cytotoxic activity of each selenourea was determined at two different concentrations (10 and 50 µM) in MCF-7, HTB-54, and HT-29 cells. In addition, selected compounds were tested at seven different concentrations (0.1, 1, 5, 10, 25, 50, 100 µM) on MCF-7, HT-29, HCT-116, HTB-54, 184B5, and BEAS-2B cells. The number of passages before defrosting the cells was 3, and they were kept under culture up to a maximum of 15.
(§3) Briefly, 1 × 10^4 cells/well were grown in 96-well plates for 24 h. Then, these cells were incubated with either DMSO (negative control) at 5 µM or a different concentration of each tested selenourea for 48 h. A volume of 20 µL of MTT was added 150 min before the termination point to measure cellular viability. After this time, culture medium was removed. The resultant formazan crystals were dissolved in 50 µL of DMSO, and absorbance was measured at 570 nm. Results are expressed as IC50, the half maximal inhibitory concentration. This value was calculated using GraphPad Prism 7 software by nonlinear curve fitting. Furthermore, the selectivity index (SI) was calculated as the ratio of the IC50 values determined for the non-malignant and the tumoral cells (IC50 (184B5)/IC50 (MCF-7) or (IC50 (BEAS-2B)/IC50 (HTB-54). Data were obtained from at least three independent experiments performed in triplicates.

Data set [4] concerns HTB-54 cells (lung adenocarcinoma). The data set can be described thus: MTT cell viability assay, HTB-54. The data set is classed as cell-based, human. To be noted: for IC50 / viability at 10 µM / viability at 50 µM: Homo sapiens, 48 h, MTT; for IC50: HTB-54, mean ± SD, read-out: IC50 HTB-54 (lung); for viability at 10 µM: HTB-54, 10 µM; for viability at 10 µM / viability at 50 µM: read-out: cell viability, percentage of live cells; for viability at 50 µM: HTB-54, 50 µM; for SI (selectivity index) lung: IC50 (BEAS-2B)/IC50 (HTB-54). The procedure, abridged: (§4)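 Cells at 1 × 10^4/well grown 24 h, then treated 48 h with selenourea at 10 and 50 µM (selected compounds 0.1–100 µM), DMSO as negative control. MTT added 150 min before end, formazan read at 570 nm; IC50 by nonlinear fit, ≥3 independent experiments in triplicate.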
On the technique in general: Formazan colour is commonly taken as a measure of viable cells.

For data set [5], the system named is MCF-7, HTB-54, HT-29 and HCT-116 cancer cell lines. The data set can be described thus: MTT assay, panel of four cancer cell lines. The data set is classed as cell-based. To be noted: MCF-7, HTB-54, HT-29, HCT-116, read-out: IC50 against the four cancer cell lines tested (all the cell lines). On the procedure: as §2, §3
Those derivatives that reduced the growth of the cell lines below 50% at 10 µM in at least one cell line were selected for being evaluated at five concentrations between […] and 100 µM. Ten compounds (1d, 1e, 2a, 2d, 3a, 6a, 6b, 6c, 6d, and 6e) passed this threshold and four of them (1e, 6c, 6d and 6e) in all three cancer cell lines. The data are expressed as IC50 (mean ± SD) in a panel of four cancer cell lines (MCF-7, HTB-54, HT-29, and HCT-116), and are shown in Table 1. Cisplatin was used as a standard drug. […] Additionally, reported IC50 values of a well-known antitumor selenocompound, i.e., sodium selenite (Na2SeO3), were used as reference for comparision with the selected selenoureas.

In data set [6] the test system is HT-29 cells (colon carcinoma). The data set can be described thus: MTT cell viability assay, HT-29. Format: cell-based. To be noted: Homo sapiens, 48 h, MTT; for IC50: HT-29, mean ± SD, read-out: IC50 HT-29 (colon); for viability at 10 µM: HT-29, 10 µM; for viability at 10 µM / viability at 50 µM: read-out: cell viability, percentage of live cells; for viability at 50 µM: HT-29, 50 µM. In outline:
as §4

For data set [7], the system named is MCF-7 cells (breast adenocarcinoma). The data set can be described thus: MTT cell viability assay, MCF-7. Format: cell-based, human. To be noted: for IC50 / viability at 10 µM / viability at 50 µM: Homo sapiens, MCF7, 48 h, MTT; for IC50: mean ± SD, read-out: IC50 MCF-7 (breast); for viability at 10 µM: MCF-7, 10 µM; for viability at 10 µM / viability at 50 µM: read-out: cell viability, percentage of live cells; for viability at 50 µM: MCF-7, 50 µM; for SI (selectivity index) breast: IC50 (184B5)/IC50 (MCF-7). The procedure, abridged:
as §4

The nature of data set [8]: DPPH radical scavenging assay. Particulars: 0.03 mg/mL, time-point 0 min. (In general: Loss of DPPH colour is used to gauge radical scavenging.)
Data set [9] deals with 184B5 cells (breast non-malignant derived cell line). The data set can be described thus: MTT cell viability assay, 184B5. To be noted: Homo sapiens, 184B5; 48 h, MTT, mean ± SD; read-out: IC50 184B5 (breast, non-malignant). The data set is classed as cell-based. On the procedure: as §1, §2, §3
Data set [10] relates to BEAS-2B cells (lung non-malignant derived cell line). The data set can be described thus: MTT cell viability assay, BEAS-2B. Format: cell-based. Particulars: Homo sapiens, 48 h, mean ± SD. As to the method: as §1, §2, §3
Data set [11] is described as follows: ABTS radical scavenging assay. Particulars: 0.003 mg/mL, 60 min.

Read-outs that look alike come from different tables or passages of the source.

Usually IC50 stands for the concentration at which inhibition is half-maximal. `N.N.[Cl][Pt][Cl]` [Cisplatin]: the IC50 is 13.7 ± 0.83 µM in data set [1]; 15.2 ± 1.04 µM in data set [2] (reference drug, literature value, read-out: IC50 MCF-7 (breast)); 14.2 ± 0.73 µM in data set [3]; 2.18 ± 1.58 µM in the data set with HCT-116 cells (colon).
The term viability denotes a per cent measure of how many cells are alive, often set against a control. In general, melting point refers to the temperature of the solid-liquid transition. `N#Cc1ccc(NC(=[Se])NCc2ccco2)cc1` [Compound 1e] returned a melting point of 128 °C. For the same compound, in data set [4], the IC50 was determined as 9.79 ± 0.07 µM, the viability at 10 µM is 35.7%, the viability at 50 µM is 9.3% and the “SI (selectivity index) lung” value turned out to be 0.61. The IC50 in [5] is less than 10 µM. Moreover, in data set [6], the half-inhibitory concentration (IC50) came to 5.89 ± 1.32 µM, the viability at 10 µM was found to be 36.2% and the viability at 50 µM was determined as 28.5%. Besides, in data set [7], the IC50 came out at 9.96 ± 1.45 µM, the viability at 10 µM came out at 48.8%, the viability at 50 µM came out at 23.4% and the “SI (selectivity index) breast” value was 0.81. In addition, in data set [8], the “DPPH radical scavenging kinetics” value is reported as “reaching the maximum activity at time-point 0′”. Also, the IC50 in [9] was determined as 8.09 ± 1.21 µM. For the same compound, the IC50 with HCT-116 cells (colon) (Homo sapiens, HCT-116) came to 9.14 ± 1.14 µM. The compound further returned an IC50 in data set [10] of 6.01 ± 0.94 µM.
Regarding `Cc1ccc(NC(=[Se])NC23CC4CC(CC(C4)C2)C3)cc1` [Compound 6b], the melting point was 169 °C. The “ABTS radical scavenging activity compared with Trolox” value in data set [11] is “significant lower radical scavenging activity than Trolox”. For the same compound, in data set [4], the IC50 came to 9.01 ± 2.6 µM, the viability at 10 µM came out at 44.2%, the viability at 50 µM was 26.1% and the “SI (selectivity index) lung” value was found to be 0.83. The IC50 in data set [5] is less than 10 µM. Besides, in data set [6], the IC50 came out at 5.67 ± 4.67 µM, the viability at 10 µM amounted to 51.4% and the viability at 50 µM was determined as 46.8%. In addition, in data set [7], the IC50 turned out to be 5.52 ± 1.61 µM, the viability at 10 µM was found to be 40%, the viability at 50 µM was 9.2% and the “SI (selectivity index) breast” value was 2.21. Besides, the IC50 in data set [9] worked out at 12.2 ± 2.42 µM. In addition, the IC50 with HCT-116 cells (colon) (Homo sapiens, HCT-116) turned out to be 6.29 ± 0.76 µM. Also, in data set [10], the midpoint of inhibition, the IC50, lay at 7.56 ± 0.19 µM.
As to `Clc1ccc(NC(=[Se])NC23CC4CC(CC(C4)C2)C3)cc1` [Compound 6d, N´-adamantyl-N-(4-chlorophenyl)selenourea], the melting point was 177 °C. Further, the “ABTS radical scavenging activity compared with Trolox” value in data set [11] is reported as “significant lower radical scavenging activity than Trolox”. For the same compound, in [4], the IC50 amounted to 6.56 ± 0.99 µM, the viability at 10 µM amounted to 22.9%, the viability at 50 µM came to 4.4% and the “SI (selectivity index) lung” value worked out at 1.16. Besides, in [5], the IC50 was less than 10 µM. Further, in data set [6], the IC50 is 8.04 ± 2.17 µM, the viability at 10 µM was found to be 45.9% and the viability at 50 µM came to 23.7%. Moreover, in data set [7], the IC50 stood at 7.19 ± 1.12 µM, the viability at 10 µM was found to be 36.6%, the viability at 50 µM came to 17.2% and the “SI (selectivity index) breast” value was determined as 2.22. Also, in data set [9], the concentration for half-maximal inhibition (IC50) was 16 ± 2.74 µM. Moreover, the IC50 in the data set with HCT-116 cells (colon) (Homo sapiens, HCT-116) came to 6.95 ± 0.65 µM. For the same compound, half-maximal inhibition in [10] (IC50) required 7.59 ± 0.53 µM.
As for `O=[Se](O)O` [sodium selenite], in data set [2] (after 72 h of treatment, read-out: IC50 in MCF-7 cells), the IC50 is 17 µM.
